Experiments:
Assay in all cases: relative viability (nuclei count vs DMSO), 5 days (fraction); higher = more cells survive
COR-L23 = test system: COR-L23
Method in brief: (§1)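 Lung cancer cell lines in 1536-well plates got either a single drug or a fixed anchor-drug dose together with five library-drug doses (not always all listed) in √10 steps, by pin tool, on the day after seeding. Nuclei were counted after 5 days, and relative viability is the treated-to-vehicle ratio of nuclei counts. Values are medians of duplicate plates.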

ChaGo-K-1 = test system: ChaGo-K-1
Method in brief: as §1

EMC-BAC-2 = test system: EMC-BAC-2
Method in brief: as §1

EPLC-272H = test system: EPLC-272H
Method in brief: as §1

H3255 = test system: H3255
Method in brief: as §1

HCC-44 = test system: HCC-44
Method in brief: as §1

HCC-827 = test system: HCC-827
Method in brief: as §1

LCLC-103H = test system: LCLC-103H
Method in brief: as §1

LU99A = test system: LU99A
Method in brief: as §1

NCI-H1395 = test system: NCI-H1395
Method in brief: as §1

NCI-H1651 = test system: NCI-H1651
Method in brief: as §1

NCI-H1793 = test system: NCI-H1793
Method in brief: as §1

NCI-H1944 = test system: NCI-H1944
Method in brief: as §1

NCI-H2023 = test system: NCI-H2023
Method in brief: as §1

NCI-H2085 = test system: NCI-H2085
Method in brief: as §1

NCI-H2087 = test system: NCI-H2087
Method in brief: as §1

NCI-H2405 = test system: NCI-H2405
Method in brief: as §1

NCI-H520 = test system: NCI-H520
Method in brief: as §1

NCI-H650 = test system: NCI-H650
Method in brief: as §1

NCI-H838 = test system: NCI-H838
Method in brief: as §1

SK-MES-1 = test system: SK-MES-1
Method in brief: as §1

Work on Nc1ccn([C@@H]2O[C@H](CO)[C@@H](O)[C@@H]2O)c(=O)n1 [Cytarabine] + O=C(CCCCCCC(=O)Nc1ccccc1)NO [Vorinostat] (partner 1 µM) yielded a relative viability (COR-L23; first compound 0.005 µM) of 0.376, a relative viability (COR-L23; first compound 0.01581 µM) of 0.404 and a relative viability (COR-L23; first compound 0.05 µM) of 0.304. For the same compound, the relative viability (COR-L23; first compound 0.1581 µM) was 0.136, the relative viability (ChaGo-K-1; first compound 0.005 µM) was 0.673 and the relative viability (ChaGo-K-1; first compound 0.01581 µM) was 0.649. It also gave a relative viability (ChaGo-K-1; first compound 0.05 µM) of 0.471, a relative viability (ChaGo-K-1; first compound 0.1581 µM) of 0.408 and a relative viability (ChaGo-K-1; first compound 0.5 µM) of 0.288. For the same compound, the relative viability (EMC-BAC-2; first compound 0.005 µM) was 0.494, the relative viability (EMC-BAC-2; first compound 0.01581 µM) was 0.448 and the relative viability (EMC-BAC-2; first compound 0.05 µM) was 0.165. The relative viability (EMC-BAC-2; first compound 0.1581 µM) was 0.29, the relative viability (EMC-BAC-2; first compound 0.5 µM) was 0.182 and the relative viability (EPLC-272H; first compound 0.005 µM) was 0.461. The relative viability (EPLC-272H; first compound 0.01581 µM) was 0.393, the relative viability (EPLC-272H; first compound 0.05 µM) was 0.398 and the relative viability (EPLC-272H; first compound 0.1581 µM) was 0.174. It also gave a relative viability (EPLC-272H; first compound 0.5 µM) of 0.155, a relative viability (H3255; first compound 0.005 µM) of 0.862 and a relative viability (H3255; first compound 0.01581 µM) of 0.853. It also gave a relative viability (H3255; first compound 0.05 µM) of 0.655, a relative viability (H3255; first compound 0.1581 µM) of 0.608 and a relative viability (H3255; first compound 0.5 µM) of 0.878. The relative viability (HCC-44; first compound 0.005 µM) was 1.2, the relative viability (HCC-44; first compound 0.01581 µM) was 1.09 and the relative viability (HCC-44; first compound 0.05 µM) was 1.08. For the same compound, the relative viability (HCC-44; first compound 0.1581 µM) was 0.973, the relative viability (HCC-44; first compound 0.5 µM) was 0.948 and the relative viability (HCC-827; first compound 0.005 µM) was 0.539. The relative viability (HCC-827; first compound 0.01581 µM) was 0.331, the relative viability (HCC-827; first compound 0.05 µM) was 0.169 and the relative viability (HCC-827; first compound 0.1581 µM) was 0.145. The relative viability (HCC-827; first compound 0.5 µM) was 0.141, the relative viability (LCLC-103H; first compound 0.005 µM) was 0.806 and the relative viability (LCLC-103H; first compound 0.01581 µM) was 0.861. The relative viability (LCLC-103H; first compound 0.05 µM) was 0.758, the relative viability (LCLC-103H; first compound 0.1581 µM) was 0.745 and the relative viability (LCLC-103H; first compound 0.5 µM) was 0.692. For the same compound, the relative viability (LU99A; first compound 0.005 µM) was 0.451, the relative viability (LU99A; first compound 0.01581 µM) was 0.468 and the relative viability (LU99A; first compound 0.05 µM) was 0.554. It also gave a relative viability (LU99A; first compound 0.1581 µM) of 0.455, a relative viability (LU99A; first compound 0.5 µM) of 0.375 and a relative viability (NCI-H1395; first compound 0.005 µM) of 0.692. For the same compound, the relative viability (NCI-H1395; first compound 0.01581 µM) was 0.586, the relative viability (NCI-H1395; first compound 0.05 µM) was 0.5 and the relative viability (NCI-H1395; first compound 0.1581 µM) was 0.357. It also gave a relative viability (NCI-H1395; first compound 0.5 µM) of 0.349, a relative viability (NCI-H1651; first compound 0.005 µM) of 0.585 and a relative viability (NCI-H1651; first compound 0.01581 µM) of 0.535. It also gave a relative viability (NCI-H1651; first compound 0.05 µM) of 0.242, a relative viability (NCI-H1651; first compound 0.1581 µM) of 0.489 and a relative viability (NCI-H1651; first compound 0.5 µM) of 0.417. For the same compound, the relative viability (NCI-H1793; first compound 0.005 µM) was 0.631, the relative viability (NCI-H1793; first compound 0.01581 µM) was 0.607 and the relative viability (NCI-H1793; first compound 0.05 µM) was 0.643. It also gave a relative viability (NCI-H1793; first compound 0.1581 µM) of 0.352, a relative viability (NCI-H1793; first compound 0.5 µM) of 0.186 and a relative viability (NCI-H1944; first compound 0.005 µM) of 0.508. The relative viability (NCI-H1944; first compound 0.01581 µM) was 0.326, the relative viability (NCI-H1944; first compound 0.05 µM) was 0.309 and the relative viability (NCI-H1944; first compound 0.1581 µM) was 0.203. For the same compound, the relative viability (NCI-H1944; first compound 0.5 µM) was 0.159, the relative viability (NCI-H2023; first compound 0.005 µM) was 0.434 and the relative viability (NCI-H2023; first compound 0.01581 µM) was 0.225. It also gave a relative viability (NCI-H2023; first compound 0.05 µM) of 0.22, a relative viability (NCI-H2023; first compound 0.1581 µM) of 0.101 and a relative viability (NCI-H2023; first compound 0.5 µM) of 0.0846. It also gave a relative viability (NCI-H2085; first compound 0.005 µM) of 0.698, a relative viability (NCI-H2085; first compound 0.01581 µM) of 0.79 and a relative viability (NCI-H2085; first compound 0.05 µM) of 0.744. For the same compound, the relative viability (NCI-H2085; first compound 0.1581 µM) was 0.618, the relative viability (NCI-H2085; first compound 0.5 µM) was 0.635 and the relative viability (NCI-H2087; first compound 0.005 µM) was 0.416. For the same compound, the relative viability (NCI-H2087; first compound 0.01581 µM) was 0.961, the relative viability (NCI-H2087; first compound 0.05 µM) was 0.598 and the relative viability (NCI-H2087; first compound 0.1581 µM) was 0.288. It also gave a relative viability (NCI-H2087; first compound 0.5 µM) of 0.308, a relative viability (NCI-H2405; first compound 0.005 µM) of 1.02 and a relative viability (NCI-H2405; first compound 0.01581 µM) of 0.748. For the same compound, the relative viability (NCI-H2405; first compound 0.05 µM) was 0.624, the relative viability (NCI-H2405; first compound 0.1581 µM) was 0.43 and the relative viability (NCI-H2405; first compound 0.5 µM) was 0.374. The relative viability (NCI-H520; first compound 0.005 µM) was 0.636, the relative viability (NCI-H520; first compound 0.01581 µM) was 0.668 and the relative viability (NCI-H520; first compound 0.05 µM) was 0.776. It also gave a relative viability (NCI-H520; first compound 0.1581 µM) of 0.555, a relative viability (NCI-H520; first compound 0.5 µM) of 0.502 and a relative viability (NCI-H650; first compound 0.005 µM) of 0.417. It also gave a relative viability (NCI-H650; first compound 0.01581 µM) of 0.315, a relative viability (NCI-H650; first compound 0.05 µM) of 0.212 and a relative viability (NCI-H650; first compound 0.1581 µM) of 0.136. The relative viability (NCI-H650; first compound 0.5 µM) was 0.112, the relative viability (NCI-H838; first compound 0.005 µM) was 0.715 and the relative viability (NCI-H838; first compound 0.01581 µM) was 0.651. The relative viability (NCI-H838; first compound 0.05 µM) was 0.654, the relative viability (NCI-H838; first compound 0.1581 µM) was 0.515 and the relative viability (NCI-H838; first compound 0.5 µM) was 0.318. The relative viability (SK-MES-1; first compound 0.005 µM) was 0.851, the relative viability (SK-MES-1; first compound 0.01581 µM) was 0.778 and the relative viability (SK-MES-1; first compound 0.05 µM) was 0.6. For the same compound, the relative viability (SK-MES-1; first compound 0.1581 µM) was 0.283 and the relative viability (SK-MES-1; first compound 0.5 µM) was 0.233.

— the supplement of paper PMC10307832
